From publication PMC9401487 (Clinical Cancer Research, 2021)

Tested on: patients with advanced solid tumors
Assay: Phase I safety and tolerability
Type: in vivo, human
[1] = Cohort 5 (N=8), 60 mg QD 7 days + carboplatin
[2] = Cohort 6 (N=7), co-dosing 60 mg QD + carboplatin days 1–3
[3] = Cohort 6: 60 mg QD days 1–3 + carboplatin AUC5 day 1, 7 patients
[4] = Cohort 7 (N=6), co-dosing 40 mg QD + carboplatin days 1 and 2

SMILES: C[C@@H]1COCCN1c1cc(C2([S@](C)(=N)=O)CC2)nc(-c2cc[nH]c3nccc2-3)n1 [ceralasertib]
- TEAE Arthralgia, Grade 1–2 [1]: 2 (25) patients, n (%)
- TEAE Arthralgia, Grade ≥3 [1]: 0 patients, n (%)
- TEAE Aspartate aminotransferase increased, Grade 1–2 [1]: 1 (13) patients, n (%)
- TEAE Aspartate aminotransferase increased, Grade ≥3 [1]: 1 (13) patients, n (%)
- TEAE Constipation, Grade 1–2 [1]: 1 (13) patients, n (%)
- TEAE Constipation, Grade ≥3 [1]: 0 patients, n (%)
- TEAE Contusion, Grade 1–2 [1]: 0 patients, n (%)
- TEAE Contusion, Grade ≥3 [1]: 0 patients, n (%)
- TEAE Cough, Grade 1–2 [1]: 0 patients, n (%)
- TEAE Cough, Grade ≥3 [1]: 0 patients, n (%)
- TEAE Decreased appetite, Grade 1–2 [1]: 2 (25) patients, n (%)
- TEAE Decreased appetite, Grade ≥3 [1]: 0 patients, n (%)
- TEAE Diarrhea, Grade 1–2 [1]: 1 (13) patients, n (%)
- TEAE Diarrhea, Grade ≥3 [1]: 0 patients, n (%)
- TEAE Dizziness, Grade 1–2 [1]: 2 (25) patients, n (%)
- TEAE Dizziness, Grade ≥3 [1]: 0 patients, n (%)
- TEAE Dyspnea, Grade 1–2 [1]: 0 patients, n (%)
- TEAE Dyspnea, Grade ≥3 [1]: 0 patients, n (%)
- TEAE Fatigue, Grade 1–2 [1]: 3 (38) patients, n (%)
- TEAE Fatigue, Grade ≥3 [1]: 0 patients, n (%)
- TEAE Hypocalcemia, Grade 1–2 [1]: 2 (25) patients, n (%)
- TEAE Hypocalcemia, Grade ≥3 [1]: 0 patients, n (%)
- TEAE Insomnia, Grade 1–2 [1]: 0 patients, n (%)
- TEAE Insomnia, Grade ≥3 [1]: 0 patients, n (%)
- TEAE Lower respiratory tract infection, Grade 1–2 [1]: 1 (13) patients, n (%)
- TEAE Lower respiratory tract infection, Grade ≥3 [1]: 1 (13) patients, n (%)
- TEAE Nausea, Grade 1–2 [1]: 4 (50) patients, n (%)
- TEAE Nausea, Grade ≥3 [1]: 0 patients, n (%)
- TEAE Neutropenia, Grade 1–2 [1]: 0 patients, n (%)
- TEAE Neutropenia, Grade ≥3 [1]: 0 patients, n (%)
- TEAE Neutrophil count decreased, Grade 1–2 [1]: 0 patients, n (%)
- TEAE Neutrophil count decreased, Grade ≥3 [1]: 1 (13) patients, n (%)
- TEAE Platelet count decreased, Grade 1–2 [1]: 1 (13) patients, n (%)
- TEAE Platelet count decreased, Grade ≥3 [1]: 0 patients, n (%)
- TEAE Pyrexia, Grade 1–2 [1]: 2 (25) patients, n (%)
- TEAE Pyrexia, Grade ≥3 [1]: 0 patients, n (%)
- TEAE Thrombocytopenia, Grade 1–2 [1]: 4 (50) patients, n (%)
- TEAE Thrombocytopenia, Grade ≥3 [1]: 2 (25) patients, n (%)
- TEAE Upper respiratory tract infection, Grade 1–2 [1]: 0 patients, n (%)
- TEAE Upper respiratory tract infection, Grade ≥3 [1]: 0 patients, n (%)
- TEAE Vomiting, Grade 1–2 [1]: 0 patients, n (%)
- TEAE Vomiting, Grade ≥3 [1]: 0 patients, n (%)
- TEAE White blood cell count decreased, Grade 1–2 [1]: 0 patients, n (%)
- TEAE White blood cell count decreased, Grade ≥3 [1]: 1 (13) patients, n (%)
- TEAE Abdominal pain, Grade 1–2 [2]: 1 (14) patients, n (%)
- TEAE Abdominal pain, Grade ≥3 [2]: 0 patients, n (%)
- TEAE Alanine aminotransferase increased, Grade 1–2 [2]: 0 patients, n (%)
- TEAE Alanine aminotransferase increased, Grade ≥3 [2]: 0 patients, n (%)
- TEAE Anemia, Grade 1–2 [2]: 2 (29) patients, n (%)
- TEAE Anemia, Grade ≥3 [2]: 4 (57) patients, n (%)
- TEAE Any AE, Grade 1–2 [2]: 0 patients, n (%)
- TEAE Any AE, Grade ≥3 [2]: 7 (100) patients, n (%)
- TEAE Arthralgia, Grade 1–2 [2]: 0 patients, n (%)
- TEAE Arthralgia, Grade ≥3 [2]: 0 patients, n (%)
- TEAE Aspartate aminotransferase increased, Grade 1–2 [2]: 0 patients, n (%)
- TEAE Aspartate aminotransferase increased, Grade ≥3 [2]: 0 patients, n (%)
- TEAE Constipation, Grade 1–2 [2]: 1 (14) patients, n (%)
- TEAE Constipation, Grade ≥3 [2]: 0 patients, n (%)
- TEAE Contusion, Grade 1–2 [2]: 0 patients, n (%)
- TEAE Contusion, Grade ≥3 [2]: 0 patients, n (%)
- TEAE Cough, Grade 1–2 [2]: 0 patients, n (%)
- TEAE Cough, Grade ≥3 [2]: 0 patients, n (%)
- TEAE Decreased appetite, Grade 1–2 [2]: 0 patients, n (%)
- TEAE Decreased appetite, Grade ≥3 [2]: 0 patients, n (%)
- TEAE Diarrhea, Grade 1–2 [2]: 1 (14) patients, n (%)
- TEAE Diarrhea, Grade ≥3 [2]: 0 patients, n (%)
- TEAE Dizziness, Grade 1–2 [2]: 1 (14) patients, n (%)
- TEAE Dizziness, Grade ≥3 [2]: 0 patients, n (%)
- TEAE Dyspnea, Grade 1–2 [2]: 1 (14) patients, n (%)
- TEAE Dyspnea, Grade ≥3 [2]: 0 patients, n (%)
- TEAE Fatigue, Grade 1–2 [2]: 1 (14) patients, n (%)
- TEAE Fatigue, Grade ≥3 [2]: 0 patients, n (%)
- TEAE Hypocalcemia, Grade 1–2 [2]: 1 (14) patients, n (%)
- TEAE Hypocalcemia, Grade ≥3 [2]: 0 patients, n (%)
- TEAE Insomnia, Grade 1–2 [2]: 2 (29) patients, n (%)
- TEAE Insomnia, Grade ≥3 [2]: 0 patients, n (%)
- TEAE Lower respiratory tract infection, Grade 1–2 [2]: 1 (14) patients, n (%)
- TEAE Lower respiratory tract infection, Grade ≥3 [2]: 0 patients, n (%)
- TEAE Nausea, Grade 1–2 [2]: 6 (86) patients, n (%)
- TEAE Nausea, Grade ≥3 [2]: 1 (14) patients, n (%)
- TEAE Neutropenia, Grade 1–2 [2]: 1 (14) patients, n (%)
- TEAE Neutropenia, Grade ≥3 [2]: 5 (71) patients, n (%)
- TEAE Neutrophil count decreased, Grade 1–2 [2]: 0 patients, n (%)
- TEAE Neutrophil count decreased, Grade ≥3 [2]: 1 (14) patients, n (%)
- TEAE Platelet count decreased, Grade 1–2 [2]: 0 patients, n (%)
- TEAE Platelet count decreased, Grade ≥3 [2]: 0 patients, n (%)
- TEAE Pyrexia, Grade 1–2 [2]: 1 (14) patients, n (%)
- TEAE Pyrexia, Grade ≥3 [2]: 0 patients, n (%)
- TEAE Thrombocytopenia, Grade 1–2 [2]: 2 (29) patients, n (%)
- TEAE Thrombocytopenia, Grade ≥3 [2]: 4 (57) patients, n (%)
- TEAE Upper respiratory tract infection, Grade 1–2 [2]: 0 patients, n (%)
- TEAE Upper respiratory tract infection, Grade ≥3 [2]: 0 patients, n (%)
- TEAE Vomiting, Grade 1–2 [2]: 4 (57) patients, n (%)
- TEAE Vomiting, Grade ≥3 [2]: 1 (14) patients, n (%)
- TEAE White blood cell count decreased, Grade 1–2 [2]: 0 patients, n (%)
- TEAE White blood cell count decreased, Grade ≥3 [2]: 2 (29) patients, n (%)
- Number of DLTs [3]: no DLTs
- SRC decision (tolerability) [3]: not tolerated beyond cycle 1
- TEAE Abdominal pain, Grade 1–2 [4]: 2 (33) patients, n (%)
- TEAE Abdominal pain, Grade ≥3 [4]: 0 patients, n (%)
- TEAE Alanine aminotransferase increased, Grade 1–2 [4]: 1 (17) patients, n (%)
- TEAE Alanine aminotransferase increased, Grade ≥3 [4]: 0 patients, n (%)
- TEAE Anemia, Grade 1–2 [4]: 1 (17) patients, n (%)
- TEAE Anemia, Grade ≥3 [4]: 4 (67) patients, n (%)
- TEAE Any AE, Grade 1–2 [4]: 1 (17) patients, n (%)
- TEAE Any AE, Grade ≥3 [4]: 5 (83) patients, n (%)
- TEAE Arthralgia, Grade 1–2 [4]: 1 (17) patients, n (%)
- TEAE Arthralgia, Grade ≥3 [4]: 0 patients, n (%)
- TEAE Aspartate aminotransferase increased, Grade 1–2 [4]: 1 (17) patients, n (%)
- TEAE Aspartate aminotransferase increased, Grade ≥3 [4]: 0 patients, n (%)
